What was measured:
[1] = cited from earlier work
[2] = Syngeneic subcutaneous model; format: in vivo; conditions: C57BL/6 mice, 1×10^6 cells; 50 mg/kg IV 1×/day over 5 days from day 5
Method: FIG. 10A-B. Syngeneic Subcutaneous Model (A, B). TABZ and TMZ in vivo: C57BL/6 mice were inoculated with 1×10^6 cells and treated xl/day over 5 days with either vehicle, TMZ, or TABZ (via IV, 50 mg/kg, starting on day 5).

[3] = Hepatic metabolism: stability in mouse liver microsomes; format: in vitro ADME
[4] = test system: cancer cells; experiment: Rapid cancer cell death phenotype; format: cell-based; conditions: relative to TMZ
Text: FIG. 8A-C. Rapid Cancer Cell Death Phenotype.

[5] = Blood-brain barrier permeability; conditions: mice; 25 mg/kg IV; 15 minutes
Method: Biodistribution and Toxicity Studies. […] Brain tissue and blood were collected from each mouse and immediately acidified to prevent prodrug degradation. The concentration of each compound in the serum (FIG. 4A) and brain (FIG. 4B) were quantified by LC-MS/MS.
CD-1 IGS mice were administered compound in 5% DMSO, 10% Tween-20, and 85% SPE-PCD in sterile water (30% w/v) at 25 mg/kg via lateral tail vein injection. Fifteen minutes post injection, mice were sacrificed and blood was collected by lacerating the right auricle with iris scissors. An 18 gauge angiocatheter was inserted through the left ventricle, and all residual circulatory volume was removed by perfusing 0.9% saline solution via an analog peristaltic pump. Blood samples were immediately centrifuged at 13,000 rcf for five minutes and the supernatant collected and acidified with 8.5% aqueous H3PO4. Brains were harvested from the cranial vault, acidified with 0.3% aqueous H3PO4 and flash frozen. Homogenized brain samples were centrifuged twice at 13,000 rcf for ten minutes and supernatant and tissue debris were separated. The resultant supernatant was analyzed, along with plasma, by LC-MS/MS to determine compound concentrations.

| Compound | Half-life in vivo (human pharmacokinetics) ([1]; human patients) [h] | Cerebral spinal fluid concentration as percentage of plasma concentration ([1]; humans) | Tumor growth [2] | Stability (2 h, with MLM) ([3]; percentage remaining relative to t0, mouse liver microsomes, SEM, n ≥ 2) [%] | Stability (2 h, no MLM) ([3]; percentage remaining, microsomes replaced with PBS) [%] | Speed of cell death induction [4] | Increase in brain distribution relative to TMZ [5] [fold] |
| --- | --- | --- | --- | --- | --- | --- | --- |
| Cn1nnc2c(C(N)=O)ncn2c1=O [TMZ, temozolomide, reference compound] | 1.5 to 2 | about 20% | exacerbation of tumor growth | 95 ± 1 | 92 ± 0.2 |  |  |
| C#CCn1nnc2c(Cl)ncn2c1=O [CPZ, 8-chloro-3-(prop-2-yn-1-yl)imidazo[5,1-d][1,2,3,5]tetrazin-4(3H)-one] |  |  |  |  |  | induce cell death quickly relative to TMZ | > 10 |
